Measured values taken from ChEMBL document CHEMBL1154617, “Synthesis and biological evaluation of 17beta-hydroxysteroid dehydrogenase type 1 (17beta-HSD1) inhibitors based on a thieno[2,3-d]pyrimidin-4(3H)-one core” (J Med Chem, 2009).
Calls of active or inactive are those of the source. The calls are words filed in the database; no cut-off is given here.

Columns and labels:
[1] = target: T1, 17-beta-hydroxysteroid dehydrogenase type 2 (Homo sapiens) (UniProt P37059); experiment: Inhibition of human recombinant 17beta-HSD2 at 0.1 uM by cell-free assay
T1 sequence (whole entry): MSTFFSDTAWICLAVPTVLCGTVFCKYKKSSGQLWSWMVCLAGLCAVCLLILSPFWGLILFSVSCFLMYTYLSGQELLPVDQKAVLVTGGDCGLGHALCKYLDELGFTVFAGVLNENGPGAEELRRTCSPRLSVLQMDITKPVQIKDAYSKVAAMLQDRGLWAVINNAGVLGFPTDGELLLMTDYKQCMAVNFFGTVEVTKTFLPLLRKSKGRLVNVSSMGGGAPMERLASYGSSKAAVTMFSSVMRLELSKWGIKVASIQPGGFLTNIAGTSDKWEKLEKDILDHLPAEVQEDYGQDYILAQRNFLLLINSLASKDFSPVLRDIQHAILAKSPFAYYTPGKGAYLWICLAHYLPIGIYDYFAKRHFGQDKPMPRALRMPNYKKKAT

[2] = target: T2, 17-beta-hydroxysteroid dehydrogenase type 1 (Homo sapiens) (UniProt P14061); experiment: Inhibition of human recombinant 17beta-HSD1 expressed in human MCF7 cells at 1 uM by cell-based assay
T2 sequence (whole entry): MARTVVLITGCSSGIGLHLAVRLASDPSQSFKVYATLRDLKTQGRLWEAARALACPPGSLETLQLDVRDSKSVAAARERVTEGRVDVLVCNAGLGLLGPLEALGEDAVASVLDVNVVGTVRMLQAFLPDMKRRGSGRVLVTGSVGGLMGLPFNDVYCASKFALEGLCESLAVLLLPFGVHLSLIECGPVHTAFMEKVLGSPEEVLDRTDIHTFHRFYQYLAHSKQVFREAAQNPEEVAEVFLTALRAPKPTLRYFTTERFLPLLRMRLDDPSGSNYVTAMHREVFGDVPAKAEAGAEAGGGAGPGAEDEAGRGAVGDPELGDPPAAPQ

[3] = target: T2, 17-beta-hydroxysteroid dehydrogenase type 1 (Homo sapiens); experiment: Inhibition of human recombinant 17beta-HSD1 expressed in human MCF7 cells at 0.1 uM by cell-based assay
[4] = target: T1, 17-beta-hydroxysteroid dehydrogenase type 2 (Homo sapiens); experiment: Inhibition of human recombinant 17beta-HSD2 at 1 uM by cell-free assay
[5] = target: T2, 17-beta-hydroxysteroid dehydrogenase type 1 (Homo sapiens); experiment: Inhibition of human recombinant 17beta-HSD1 at 0.1 uM by cell-free assay; type: single protein
[6] = target: T2, 17-beta-hydroxysteroid dehydrogenase type 1 (Homo sapiens); experiment: Inhibition of human recombinant 17beta-HSD1 at 1 uM by cell-free assay; type: single protein
Estrogen receptor beta = Estrogen receptor beta (Homo sapiens, UniProt Q92731); experiment: Activity at human recombinant ERbeta by fluorescence polarization assay
Estrogen receptor beta, sequence (Q92731 whole entry): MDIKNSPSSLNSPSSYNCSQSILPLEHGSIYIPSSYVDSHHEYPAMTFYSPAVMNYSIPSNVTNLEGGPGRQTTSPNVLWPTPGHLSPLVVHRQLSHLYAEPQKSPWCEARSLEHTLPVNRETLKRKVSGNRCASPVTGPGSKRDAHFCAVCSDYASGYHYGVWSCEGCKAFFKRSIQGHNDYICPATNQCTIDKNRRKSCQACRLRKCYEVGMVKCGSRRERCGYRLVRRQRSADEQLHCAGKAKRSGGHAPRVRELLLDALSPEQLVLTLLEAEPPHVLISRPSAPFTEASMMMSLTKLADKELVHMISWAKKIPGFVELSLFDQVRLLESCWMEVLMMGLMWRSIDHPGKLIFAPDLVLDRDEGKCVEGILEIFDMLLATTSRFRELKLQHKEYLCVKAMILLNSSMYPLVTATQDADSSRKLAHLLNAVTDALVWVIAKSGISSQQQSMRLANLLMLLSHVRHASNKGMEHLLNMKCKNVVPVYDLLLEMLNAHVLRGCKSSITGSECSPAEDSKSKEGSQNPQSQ

Estrogen receptor = target: T3, Estrogen receptor (Homo sapiens, UniProt P03372); experiment: Activity at human recombinant ERalpha by fluorescence polarization assay
T3 sequence (P03372 whole entry): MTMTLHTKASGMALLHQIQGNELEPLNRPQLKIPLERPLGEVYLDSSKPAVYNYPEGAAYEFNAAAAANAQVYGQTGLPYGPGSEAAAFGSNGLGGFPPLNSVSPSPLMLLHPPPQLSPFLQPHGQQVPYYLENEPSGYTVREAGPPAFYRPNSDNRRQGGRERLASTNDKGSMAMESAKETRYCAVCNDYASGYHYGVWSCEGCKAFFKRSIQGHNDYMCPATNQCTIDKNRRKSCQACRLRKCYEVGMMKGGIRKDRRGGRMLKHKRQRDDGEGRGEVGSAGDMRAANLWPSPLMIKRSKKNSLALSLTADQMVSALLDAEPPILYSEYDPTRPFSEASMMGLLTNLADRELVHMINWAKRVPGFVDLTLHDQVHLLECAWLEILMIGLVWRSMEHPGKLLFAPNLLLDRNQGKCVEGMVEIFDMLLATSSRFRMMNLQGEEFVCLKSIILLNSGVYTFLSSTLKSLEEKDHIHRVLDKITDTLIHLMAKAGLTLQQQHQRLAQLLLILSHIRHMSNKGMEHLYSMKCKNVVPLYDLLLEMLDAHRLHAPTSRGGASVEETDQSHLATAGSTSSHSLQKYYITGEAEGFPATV

Structure (SMILES) | inhibition [1] | inhibition [2] | inhibition [3] | inhibition [4] | inhibition [5] | inhibition [6] | EC50 (Estrogen receptor beta) | EC50 (Estrogen receptor)
Cc1ccc(SC2=C(C=O)CCc3c2sc2nc4n(c(=O)c32)CCCCC4)cc1 | 8.2% | 69.4% | 18.9% | 32.1% | 47% | 80.6% |  | 
CCCSc1c(C=O)ccc2c1sc1nc3n(c(=O)c12)CCCCC3 | 3.8% | 86.4% | 28.5% | 12.7% | 83% | 90.6% |  | 
O=CC1=C(SCC(=O)N2CCOCC2)c2sc3nc4n(c(=O)c3c2CC1)CCCCC4 | 3.9% | 39.4% | 3.9% | 3.1% | 4% | 7.8% |  | 
CC(C)SC1=C(C=O)CCc2c1sc1nc3n(c(=O)c21)CCCCC3 | inactive | 100% | 71.9% | inactive | 64.7% | 92.9% |  | 
O=Cc1ccc2c(sc3nc4n(c(=O)c32)CCCCC4)c1Sc1ccccc1 | inactive | 87.9% | 15.1% | inactive | 26.9% | 88.4% | > 1000 nM | > 1000 nM
CCCSC1=C(/C=C/C(C)=O)CCc2c1sc1nc3n(c(=O)c21)CCCCC3 |  | 8.9% | 8.4% |  | 1.1% | 13.9% |  | 
O=CC1=C(SCc2ccccc2)c2sc3nc4n(c(=O)c3c2CC1)CCCCC4 | 25.8% |  |  | 62.2% | 7.2% | 30.7% |  | 
CCCCSC1=C(C=O)CCc2c1sc1nc3n(c(=O)c21)CCCCC3 | inactive | 100% | 54.1% | 7.8% | 67.6% | 93.4% |  | 
O=CC1=C(Sc2ccc(C(=O)O)cc2)c2sc3nc4n(c(=O)c3c2CC1)CCCCC4 |  |  |  |  | 3.8% | 22.1% |  | 
O=CC1=C(Sc2ccc3ccccc3c2)c2sc3nc4n(c(=O)c3c2CC1)CCCCC4 | 19% |  |  | 40.1% | 55.2% | 64% |  | 
O=c1c2c3c(sc2nc2n1CCCCC2)C(Cl)=C(CO)CC3 |  | 36.2% | 25.9% |  | 14.5% | 39.9% |  | 
O=c1c2c(nc3n1CCCCC3)sc1c(Sc3ccccc3)c(CO)ccc12 | 30.8% | 46.9% | 30.5% | 37.3% | 80.5% | 87.5% |  | 
CCCSC1=C(/C=N/O)CCc2c1sc1nc3n(c(=O)c21)CCCCC3 | 19.7% |  |  | 41.1% | 0.1% | 2.9% |  | 
O=CC1=C(SC2CCCC2)c2sc3nc4n(c(=O)c3c2CC1)CCCCC4 | inactive | 80.5% | 40.3% | inactive | 46.6% | 87.4% | > 1000 nM | > 10000 nM
CCCSC1=C(C=O)CCc2c1sc1nc3n(c(=O)c21)CCCCC3 | inactive | 100% | 74% | 5.3% | 72.9% | 95.2% | > 1000 nM | > 1000 nM
O=c1c2c3c(sc2nc2n1CCCCC2)C(Cl)=C(/C=N/O)CC3 |  | 15.1% | 14% |  | 4.1% | 17.9% |  | 
CC(C)(C)SC1=C(C=O)CCc2c1sc1nc3n(c(=O)c21)CCCCC3 | inactive | 87% | 33.6% | 1.2% | 49.8% | 89.6% | > 1000 nM | > 10000 nM
O=c1c2c3c(sc2nc2n1CCCCC2)CCCC3 |  | 45.9% | 10% |  | 8% | 23.2% |  | 

Structure (SMILES) | inhibition [1] | inhibition [2] | inhibition [3] | inhibition [4] | inhibition [5] | inhibition [6] | EC50 (Estrogen receptor beta) | EC50 (Estrogen receptor)
O=CC1=C(Sc2ccncc2)c2sc3nc4n(c(=O)c3c2CC1)CCCCC4 | 10.5% |  |  | 13.7% | 79.2% | 87.2% |  | 
CCCSC1=C(C=O)CCc2c1sc1nc3n(c(=O)c21)CCCCCC3 | 31.4% | 57% | 15.6% | 36.9% | 63.3% | 74.7% | > 1000 nM | > 1000 nM
COc1ccc(SC2=C(C=O)CCc3c2sc2nc4n(c(=O)c32)CCCCC4)cc1 | 8.6% | 71.6% | 24.6% | 53% | 89% | 89.8% |  | 
CCCSC1=C(C=O)CCc2c1sc1nc3n(c(=O)c21)CCC3 |  |  |  |  | 16.7% | 67.2% |  | 
O=CC1=C(Sc2cccc(O)c2)c2sc3nc4n(c(=O)c3c2CC1)CCCCC4 | 40.9% | 84.1% | 52.6% | 48.1% | 94.2% | 96.5% | > 1000 nM | > 1000 nM
CCCSc1c(CO)ccc2c1sc1nc3n(c(=O)c12)CCCCC3 | 13.6% | 78.6% | 35.6% | 20.6% | 69% | 85.9% |  | 
O=CC1=C(Cl)c2sc3nc4n(c(=O)c3c2CCC1)CCCCC4 |  |  |  |  |  |  |  | > 10000 nM
O=C1CCCc2c1sc1nc3n(c(=O)c21)CCCC3 |  | 35.8% | 6.3% |  | inactive | 3.8% |  | 
O=CC1=C(Sc2ccc(F)cc2)c2sc3nc4n(c(=O)c3c2CC1)CCCCC4 | 17% | 27.4% | 17.3% | 27.4% | 87.4% | 91.9% |  | 
CCCSC1=C(C=O)CCCc2c1sc1nc3n(c(=O)c21)CCCCC3 | inactive | 100% | 43.9% | inactive | 35.2% | 87% |  | 
O=CC1=C(Sc2ccc(O)cc2)c2sc3nc4n(c(=O)c3c2CC1)CCCCC4 | 21.7% | 76.8% | 36.5% | 22.6% | 58.5% | 1.8% |  | 
CCSC1=C(C=O)CCc2c1sc1nc3n(c(=O)c21)CCCCC3 | inactive | 100% | 66.1% | 2% | 71.3% | 94.5% |  | 
O=CC1=C(SCCC(=O)O)c2sc3nc4n(c(=O)c3c2CC1)CCCCC4 |  |  |  |  | 0.3% | 2.8% |  | 
O=CC1=C(Sc2ccccc2)c2sc3nc4n(c(=O)c3c2CC1)CCCCC4 |  |  |  |  | 63.3% | 85.1% | > 10000 nM | > 10000 nM
O=CC1=C(SC2CCCCC2)c2sc3nc4n(c(=O)c3c2CC1)CCCCC4 | inactive | 63.9% | 32.7% | inactive | 51.2% | 82.2% | > 1000 nM | > 10000 nM
O=CC1=C(Sc2ccccc2O)c2sc3nc4n(c(=O)c3c2CC1)CCCCC4 | 32.6% | 90.1% | 18.2% | 71.6% | 85.6% | 91.3% |  | 
CCCSC1=C(C=O)CCc2c1sc1ncn(C)c(=O)c21 | 12.9% | 48.2% | 19.5% | 17.4% | 24.3% | 55.8% |  | 
O=CC1=C(Cl)c2sc3nc4n(c(=O)c3c2CC1)CCC4 |  | 38.6% | 19.7% |  | 3.3% | 26.1% |  | 
